Literature values as cited in patent publication US6645974B2, “Androgen receptor modulators and methods for use thereof” (Merck & Co., Inc., priority 2001, dated 2003).
Where a name gives a salt, the structure may show the parent alone.

How the values were obtained:
[1] = after 7 years of treatment
[2] = postmenopausal osteoporotic women, median of 22 months of treatment

Molecule	increase in spinal BMD [1]	reduction in nonvertebral fractures [2]	reduction in spine fractures [2]
NCCCC(O)(P(=O)(O)O)P(=O)(O)O [alendronate, 4-amino-1-hydroxybutylidene-1,1-bisphosphonic acid monosodium salt, trihydrate]	≤ 11%		
hPTH(1-34): human parathyroid hormone 1-34 fragment (SVSEIQLMHNLGKHLNSMERVEWLRKKLQDVHNF; Parathyroid hormone; UniProt P01270 32-65, looked up, fragment)		54%	≥ 65%
